In patent US9434684B2, “Oxime-substituted amide compound and pest control agent” (Nissan Chemical Industries, Ltd., priority 2012, dated 2016):

Assays:
Sclerotinia sclerotiorum = experiment: Preventive effect against cucumber stem rot; type: in vivo; details: 48 h, 100 ppm solution (*), 2 days
Botrytis cinerea [1] = experiment: Preventive effect against cucumber gray mold (spore inoculation); type: in vivo; details: 72 h, cucumber leaves, 100 ppm solution (*), 3 days
Botrytis cinerea [2] = experiment: Preventive effect against cucumber gray mold (mycelium inoculation); type: in vivo; details: 48 h, 100 ppm solution (*), 2 days
[3] = test system: Phaeosphaeria nodorum (synonym: Septoria nodorum); experiment: Preventive effect against wheat glume blotch; type: in vivo; details: Parastagonospora nodorum, 192 h, 100 ppm solution (*), 2 + 6 days

SMILES: CC(C)O/N=C(/CNC(=O)c1ccccc1C(F)(F)F)c1ncc(C(F)(F)F)cc1Cl [Compound No. 2-020, (Z)—N-[2-[3-chloro-5-(trifluoromethyl)pyridin-2-yl]-2-(isopropoxyimino)ethyl]-2-(trifluoromethyl)benzamide]
- melting point: 97 to 98 °C
- pest or weed control at 100 ppm (Sclerotinia sclerotiorum): ≥ 70%
- pest or weed control at 100 ppm (Botrytis cinerea [1]): ≥ 70%
- pest or weed control at 100 ppm (Botrytis cinerea [2]): ≥ 70%
- pest or weed control at 100 ppm [3]: ≥ 70%
